From US6921763B2, “Pyrazolopyrimidines as therapeutic agents” (Abbott Laboratories, priority 1999, dated 2005)

| melting point [°C] | Compound |
| --- | --- |
| 173 to 175 | Nc1ncnc2c1c(-c1ccc(Oc3ccccc3)cc1)nn2[C@H]1CC[C@@H](N2CCNCC2)CC1.O=C(O)/C=C\C(=O)O.O=C(O)/C=C\C(=O)O.O=C(O)/C=C\C(=O)O |
| 153 to 155 | Nc1ncnc2c1c(-c1ccc(Oc3ccccc3)cc1)nn2[C@H]1CC[C@H](N2CCNCC2)CC1.O=C(O)/C=C\C(=O)O.O=C(O)/C=C\C(=O)O.O=C(O)/C=C\C(=O)O |
| 187 to 187.5 | Nc1ncnc2c1c(-c1ccc(Oc3ccccc3)cc1)nn2C1CCOCC1 |
| 200 to 202.5 | Nc1ncnc2c1c(-c1ccc(Oc3ccccc3)cc1)nn2C1CCC2(CC1)OCCO2 |
